Experimental data from patent US8808743B2, “Benzonatate compositions and methods of use” (priority 2010, dated 2014).

Assay: Simulated buccal dissolution testing (stirred flow-thru cell, simulated saliva)
Assay type: physicochemical
Details: 8 mg dose
Source text: Most USP dissolution tests use large volumes of media—defined as ‘sink conditions’; the aim is to get complete dissolution of the active ingredient. […] They are: • Small volume • Short residence time • Solids transfer • Composition • Incomplete dissolution
For buccal dissolution the volume of saliva is very small compared to that of the stomach and the residence time in the mouth is also very short, the bulk of the dosage form being swallowed within a minute. The dissolution test used here employed procedures and a buccal dissolution apparatus devised by DOW Chemical described in U.S. Pat. No. 7,470,545 B2 herein incorporated by reference to the extent not incompatible herewith.
In order for this test to give meaningful results it is necessary to use a dissolution media that simulates saliva. There is no USP recommended simulated saliva, so the composition used in these studies was based on published ranges. The composition used is shown below:
The technique uses a stirred flow-thru cell with a very short residence time. The buccal dissolution test was set up using simulated saliva, with a liquid volume in the cell of 9 ml, and a flow rate of 5.3 ml/min (2.7 ml/min thru the dip tube to waste, and 2.6 ml/min thru the filter and the in-line UV cell). UV cell path length was 1 mm. The tests were run at room temperature
Buccal dissolution studies were carried out with neat Formosa benzonatate (abbreviated below as “Benz”) and benzonatate resinates prepared from this benzonatate. Preparation of the resinates was at room temperature for 40 hours by the procedure described in Example 2.
Dissolution data were obtained at several benzonatate dosages for both the neat benzonatate and the resinates, and the data were normalized to a dosage of 8 mg. The normalized benzonatate dissolution data are given in Table VII and are plotted as a function of time in FIG. 6.

## CCCCNc1ccc(C(=O)OCCOCCOCCOCCOCCOCCOCCOCCOCCOC)cc1 [BENZ, benzonatate]
0 sec
  Benzonatate Conc. In Effluent: 0 mg/L
5 sec
  Benzonatate Conc. In Effluent: 0 mg/L
10 sec
  Benzonatate Conc. In Effluent: 0 mg/L
15 sec
  Benzonatate Conc. In Effluent: 37.3 mg/L
  Cumulative Benzonatate Released: 0.008 mg
20 sec
  Benzonatate Conc. In Effluent: 192.8 mg/L
  Cumulative Benzonatate Released: 0.059 mg
25 sec
  Benzonatate Conc. In Effluent: 353.0 mg/L
  Cumulative Benzonatate Released: 0.180 mg
30 sec
  Benzonatate Conc. In Effluent: 473.4 mg/L
  Cumulative Benzonatate Released: 0.362 mg
35 sec
  Benzonatate Conc. In Effluent: 544.2 mg/L
  Cumulative Benzonatate Released: 0.587 mg
40 sec
  Benzonatate Conc. In Effluent: 574.7 mg/L
  Cumulative Benzonatate Released: 0.834 mg
45 sec
  Benzonatate Conc. In Effluent: 585.5 mg/L
  Cumulative Benzonatate Released: 1.090 mg
50 sec
  Benzonatate Conc. In Effluent: 573.6 mg/L
  Cumulative Benzonatate Released: 1.346 mg
55 sec
  Benzonatate Conc. In Effluent: 559.0 mg/L
  Cumulative Benzonatate Released: 1.596 mg
60 sec
  Benzonatate Conc. In Effluent: 541.7 mg/L
  Cumulative Benzonatate Released: 1.839 mg
65 sec
  Benzonatate Conc. In Effluent: 519.6 mg/L
  Cumulative Benzonatate Released: 2.074 mg
70 sec
  Benzonatate Conc. In Effluent: 498.0 mg/L
  Cumulative Benzonatate Released: 2.298 mg
75 sec
  Benzonatate Conc. In Effluent: 480.4 mg/L
  Cumulative Benzonatate Released: 2.514 mg
80 sec
  Benzonatate Conc. In Effluent: 460.2 mg/L
  Cumulative Benzonatate Released: 2.722 mg
85 sec
  Benzonatate Conc. In Effluent: 439.9 mg/L
  Cumulative Benzonatate Released: 2.921 mg
90 sec
  Benzonatate Conc. In Effluent: 421.8 mg/L
  Cumulative Benzonatate Released: 3.111 mg
95 sec
  Benzonatate Conc. In Effluent: 403.2 mg/L
  Cumulative Benzonatate Released: 3.293 mg
100 sec
  Benzonatate Conc. In Effluent: 387.3 mg/L
  Cumulative Benzonatate Released: 3.468 mg
105 sec
  Benzonatate Conc. In Effluent: 369.4 mg/L
  Cumulative Benzonatate Released: 3.635 mg
110 sec
  Benzonatate Conc. In Effluent: 353.5 mg/L
  Cumulative Benzonatate Released: 3.795 mg
115 sec
  Benzonatate Conc. In Effluent: 337.8 mg/L
  Cumulative Benzonatate Released: 3.947 mg
120 sec
  Benzonatate Conc. In Effluent: 323.0 mg/L
  Cumulative Benzonatate Released: 4.093 mg
125 sec
  Benzonatate Conc. In Effluent: 308.9 mg/L
  Cumulative Benzonatate Released: 4.233 mg
130 sec
  Benzonatate Conc. In Effluent: 294.9 mg/L
  Cumulative Benzonatate Released: 4.366 mg
135 sec
  Benzonatate Conc. In Effluent: 282.2 mg/L
  Cumulative Benzonatate Released: 4.494 mg
140 sec
  Benzonatate Conc. In Effluent: 269.8 mg/L
  Cumulative Benzonatate Released: 4.615 mg
145 sec
  Benzonatate Conc. In Effluent: 257.6 mg/L
  Cumulative Benzonatate Released: 4.732 mg
150 sec
  Benzonatate Conc. In Effluent: 246.0 mg/L
  Cumulative Benzonatate Released: 4.843 mg
155 sec
  Benzonatate Conc. In Effluent: 235.2 mg/L
  Cumulative Benzonatate Released: 4.949 mg
160 sec
  Benzonatate Conc. In Effluent: 224.7 mg/L
  Cumulative Benzonatate Released: 5.051 mg
165 sec
  Benzonatate Conc. In Effluent: 214.7 mg/L
  Cumulative Benzonatate Released: 5.148 mg
170 sec
  Benzonatate Conc. In Effluent: 205.2 mg/L
  Cumulative Benzonatate Released: 5.241 mg
175 sec
  Benzonatate Conc. In Effluent: 195.8 mg/L
  Cumulative Benzonatate Released: 5.329 mg
180 sec
  Benzonatate Conc. In Effluent: 187.1 mg/L
  Cumulative Benzonatate Released: 5.414 mg
185 sec
  Benzonatate Conc. In Effluent: 178.8 mg/L
  Cumulative Benzonatate Released: 5.495 mg
190 sec
  Benzonatate Conc. In Effluent: 170.9 mg/L
  Cumulative Benzonatate Released: 5.572 mg
195 sec
  Benzonatate Conc. In Effluent: 163.1 mg/L
  Cumulative Benzonatate Released: 5.646 mg
200 sec
  Benzonatate Conc. In Effluent: 155.8 mg/L
  Cumulative Benzonatate Released: 5.716 mg
205 sec
  Benzonatate Conc. In Effluent: 148.8 mg/L
  Cumulative Benzonatate Released: 5.783 mg
210 sec
  Benzonatate Conc. In Effluent: 142.0 mg/L
  Cumulative Benzonatate Released: 5.848 mg
215 sec
  Benzonatate Conc. In Effluent: 135.6 mg/L
  Cumulative Benzonatate Released: 5.909 mg
220 sec
  Benzonatate Conc. In Effluent: 129.6 mg/L
  Cumulative Benzonatate Released: 5.967 mg
225 sec
  Benzonatate Conc. In Effluent: 123.7 mg/L
  Cumulative Benzonatate Released: 6.023 mg
230 sec
  Benzonatate Conc. In Effluent: 118.3 mg/L
  Cumulative Benzonatate Released: 6.077 mg
235 sec
  Benzonatate Conc. In Effluent: 112.9 mg/L
  Cumulative Benzonatate Released: 6.128 mg
240 sec
  Benzonatate Conc. In Effluent: 107.8 mg/L
  Cumulative Benzonatate Released: 6.177 mg
245 sec
  Benzonatate Conc. In Effluent: 102.9 mg/L
  Cumulative Benzonatate Released: 6.223 mg
250 sec
  Benzonatate Conc. In Effluent: 98.3 mg/L
  Cumulative Benzonatate Released: 6.268 mg
255 sec
  Benzonatate Conc. In Effluent: 93.7 mg/L
  Cumulative Benzonatate Released: 6.310 mg
260 sec
  Benzonatate Conc. In Effluent: 89.7 mg/L
  Cumulative Benzonatate Released: 6.350 mg
265 sec
  Benzonatate Conc. In Effluent: 85.6 mg/L
  Cumulative Benzonatate Released: 6.389 mg
270 sec
  Benzonatate Conc. In Effluent: 81.8 mg/L
  Cumulative Benzonatate Released: 6.426 mg
275 sec
  Benzonatate Conc. In Effluent: 78.0 mg/L
  Cumulative Benzonatate Released: 6.461 mg
280 sec
  Benzonatate Conc. In Effluent: 74.5 mg/L
  Cumulative Benzonatate Released: 6.495 mg
285 sec
  Benzonatate Conc. In Effluent: 71.3 mg/L
  Cumulative Benzonatate Released: 6.527 mg
290 sec
  Benzonatate Conc. In Effluent: 68.1 mg/L
  Cumulative Benzonatate Released: 6.558 mg
295 sec
  Benzonatate Conc. In Effluent: 64.8 mg/L
  Cumulative Benzonatate Released: 6.587 mg
300 sec
  Benzonatate Conc. In Effluent: 61.6 mg/L
  Cumulative Benzonatate Released: 6.615 mg
